# Experimental data as given in patent US9890124B2, “Benzazepine sulfonamide compounds” (Hoffmann-La Roche Inc., priority 2015, dated 2018).
# What was measured:
# human TLR7 = human TLR7 (Homo sapiens (Human), UniProt Q9NYK1); assay: HEK-Blue human TLR7 cells NF-κB SEAP reporter assay; format: cell-based; conditions: stimulation for 20 hours
# From the text: (§1) For TLR8 and TLR7 activity testing, HEK-Blue human TLR8 or TLR7 cells (Invivogen, San Diego, Calif., USA) are used, respectively. These cells are designed for studying the stimulation of human TLR8 or TLR7 by monitoring the activation of NF-κB. A SEAP (secreted embryonic alkaline phosphatase) reporter gene is placed under the control of the IFN-b minimal promoter fused to five NF-κB and AP-1-binding sites. Therefore the reporter expression is regulated by the NF-κB promoter upon stimulation of human TLR8 or TLR7 for 20 hours. The cell culture supernatant SEAP reporter activity was determined using Quanti Blue kit (Invivogen, San Diego, Calif., USA) at a wavelength of 640 nm, a detection medium that turns purple/blue in the presence of alkaline phosphatase. EC50 values were determined using Activity Base analysis (ID Business Solution, Limited).
# human TLR8 = human TLR8 (Homo sapiens (Human), UniProt Q9NR97); assay: HEK-Blue human TLR8 cells NF-κB SEAP reporter assay; format: cell-based; conditions: stimulation for 20 hours
# Sequence of human TLR8 (Q9NR97 27-1041): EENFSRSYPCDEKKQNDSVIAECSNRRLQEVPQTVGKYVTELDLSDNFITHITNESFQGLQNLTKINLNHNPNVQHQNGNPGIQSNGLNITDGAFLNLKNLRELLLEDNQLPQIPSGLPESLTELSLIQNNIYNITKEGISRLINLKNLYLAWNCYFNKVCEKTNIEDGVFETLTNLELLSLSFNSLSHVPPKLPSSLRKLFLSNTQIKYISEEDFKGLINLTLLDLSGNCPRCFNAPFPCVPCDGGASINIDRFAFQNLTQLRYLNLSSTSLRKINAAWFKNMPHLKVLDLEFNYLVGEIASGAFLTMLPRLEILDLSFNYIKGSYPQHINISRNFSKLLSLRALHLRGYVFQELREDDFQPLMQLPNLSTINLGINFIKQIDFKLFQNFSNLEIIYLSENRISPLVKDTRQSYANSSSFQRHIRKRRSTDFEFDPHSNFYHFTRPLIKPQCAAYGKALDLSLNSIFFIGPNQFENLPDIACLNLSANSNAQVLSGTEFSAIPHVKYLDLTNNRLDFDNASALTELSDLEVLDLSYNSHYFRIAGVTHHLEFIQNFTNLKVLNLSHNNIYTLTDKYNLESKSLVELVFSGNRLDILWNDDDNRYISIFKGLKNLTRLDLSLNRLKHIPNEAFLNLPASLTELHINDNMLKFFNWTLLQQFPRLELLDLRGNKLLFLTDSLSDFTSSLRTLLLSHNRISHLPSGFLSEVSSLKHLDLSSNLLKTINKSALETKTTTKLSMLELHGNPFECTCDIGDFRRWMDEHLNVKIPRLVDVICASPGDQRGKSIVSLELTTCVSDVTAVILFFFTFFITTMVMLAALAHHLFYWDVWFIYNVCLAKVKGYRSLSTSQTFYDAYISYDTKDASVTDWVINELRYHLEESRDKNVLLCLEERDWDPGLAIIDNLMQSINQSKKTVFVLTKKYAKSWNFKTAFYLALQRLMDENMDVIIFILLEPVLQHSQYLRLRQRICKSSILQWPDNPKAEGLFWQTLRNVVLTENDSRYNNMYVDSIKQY
# From the text: as §1
# Sequence of human TLR7 (Q9NYK1 27-1049): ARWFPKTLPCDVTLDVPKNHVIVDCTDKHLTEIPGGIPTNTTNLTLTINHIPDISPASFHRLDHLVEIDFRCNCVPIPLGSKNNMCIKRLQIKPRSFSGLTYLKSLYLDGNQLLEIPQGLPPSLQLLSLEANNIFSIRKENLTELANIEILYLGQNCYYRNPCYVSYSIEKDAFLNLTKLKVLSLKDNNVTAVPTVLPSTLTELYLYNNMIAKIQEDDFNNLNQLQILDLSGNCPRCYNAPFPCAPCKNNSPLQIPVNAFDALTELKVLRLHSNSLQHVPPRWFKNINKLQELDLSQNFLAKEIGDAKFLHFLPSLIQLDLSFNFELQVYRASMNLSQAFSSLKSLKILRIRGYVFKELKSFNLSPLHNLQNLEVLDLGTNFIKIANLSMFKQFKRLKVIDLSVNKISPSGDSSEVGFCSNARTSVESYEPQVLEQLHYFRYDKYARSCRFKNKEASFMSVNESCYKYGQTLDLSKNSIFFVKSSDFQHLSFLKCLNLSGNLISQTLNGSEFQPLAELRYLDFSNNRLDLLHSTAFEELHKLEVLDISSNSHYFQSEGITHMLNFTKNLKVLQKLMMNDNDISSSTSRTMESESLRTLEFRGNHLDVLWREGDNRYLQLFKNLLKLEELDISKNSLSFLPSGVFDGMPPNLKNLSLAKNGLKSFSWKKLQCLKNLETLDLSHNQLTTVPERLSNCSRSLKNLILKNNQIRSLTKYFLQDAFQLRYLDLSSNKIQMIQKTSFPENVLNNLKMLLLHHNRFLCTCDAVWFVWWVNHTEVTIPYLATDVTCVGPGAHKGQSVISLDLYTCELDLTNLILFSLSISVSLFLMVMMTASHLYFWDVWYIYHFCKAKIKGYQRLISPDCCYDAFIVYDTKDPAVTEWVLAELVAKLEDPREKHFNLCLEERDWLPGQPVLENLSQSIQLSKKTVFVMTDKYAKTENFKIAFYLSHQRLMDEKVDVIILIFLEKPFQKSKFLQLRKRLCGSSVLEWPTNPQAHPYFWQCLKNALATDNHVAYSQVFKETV
EC50 (human TLR7) [nM],EC50 (human TLR8) [nM],Compound
3000,6,"CCCN(CCC)C(=O)C1=Cc2ccc(-c3cccc(S(N)(=O)=O)c3)cc2N=C(N)C1 [Example 1, 2-Amino-N,N-dipropyl-8-(3-sulfamoylphenyl)-3H-1-benzazepine-4-carboxamide]"
7000,6,"CCCN(CCC)C(=O)C1=Cc2ccc(-c3cccc(S(=O)(=O)NCCO)c3)cc2N=C(N)C1 [Example 2, 2-Amino-8-[3-(2-hydroxyethylsulfamoyl)phenyl]-N,N-dipropyl-3H-1-benzazepine-4-carboxamide]"
> 100000,6,"CCCN(CCC)C(=O)C1=Cc2ccc(-c3cccc(S(=O)(=O)N4CCCC4)c3)cc2N=C(N)C1 [Example 3, 2-amino-N,N-dipropyl-8-(3-pyrrolidin-1-ylsulfonylphenyl)-3H-1-benzazepine-4-carboxamide]"
5000,23,"CCCN(CCC)C(=O)C1=Cc2ccc(-c3cncc(S(N)(=O)=O)c3)cc2N=C(N)C1 [Example 4, 2-Amino-N,N-dipropyl-8-(5-sulfamoyl-3-pyridyl)-3H-1-benzazepine-4-carboxamide]"
103000,3,"CCCN(CCC)C(=O)C1=Cc2ccc(-c3cccc(S(=O)(=O)N4CCC(O)C4)c3)cc2N=C(N)C1 (stereo not shown) [Example 5, 2-Amino-8-[3-(3-hydroxypyrrolidin-1-yl)sulfonylphenyl]-N,N-dipropyl-3H-1-benzazepine-4-carboxamide]"
104000,10,"CCCN(CCC)C(=O)C1=Cc2ccc(-c3ccc(S(=O)(=O)N4CCC(O)C4)cc3)cc2N=C(N)C1 (stereo not shown) [Example 6, 2-Amino-8-[4-(3-hydroxypyrrolidin-1-yl)sulfonylphenyl]-N,N-dipropyl-3H-1-benzazepine-4-carboxamide]"
18000,5,"CCCN(CCC)C(=O)C1=Cc2ccc(-c3cccc(S(=O)(=O)N4CC[C@@H](O)C4)c3)cc2N=C(N)C1 [Example 7, 2-Amino-8-[3-[(3R)-3-hydroxypyrrolidin-1-yl]sulfonylphenyl]-N,N-dipropyl-3H-1-benzazepine-4-carboxamide]"
24000,5,"CCCN(CCC)C(=O)C1=Cc2ccc(-c3cccc(S(=O)(=O)N4CC[C@H](O)C4)c3)cc2N=C(N)C1 [Example 8, 2-Amino-8-[3-[(3S)-3-hydroxypyrrolidin-1-yl]sulfonylphenyl]-N,N-dipropyl-3H-1-benzazepine-4-carboxamide]"
17000,5,"CCCN(CCC)C(=O)C1=Cc2ccc(-c3cccc(S(=O)(=O)N4CC(O)C4)c3)cc2N=C(N)C1 [Example 9, 2-Amino-8-[3-(3-hydroxyazetidin-1-yl)sulfonylphenyl]-N,N-dipropyl-3H-1-benzazepine-4-carboxamide]"
20000,4,"CCCN(CCC)C(=O)C1=Cc2ccc(-c3cccc(S(=O)(=O)N(C)CCO)c3)cc2N=C(N)C1 [Example 10, 2-Amino-8-[3-[2-hydroxyethyl(methyl)sulfamoyl]phenyl]-N,N-dipropyl-3H-1-benzazepine-4-carboxamide]"
12000,8,"CCCN(CCC)C(=O)C1=Cc2ccc(-c3cccc(S(=O)(=O)NCCOCCO)c3)cc2N=C(N)C1 [Example 11, 2-Amino-8-[3-[2-(2-hydroxyethoxy)ethylsulfamoyl]phenyl]-N,N-dipropyl-3H-1-benzazepine-4-carboxamide]"
12000,8,"CCCN(CCC)C(=O)C1=Cc2ccc(-c3cccc(S(=O)(=O)NCCCCCCO)c3)cc2N=C(N)C1 [Example 12, 2-Amino-8-[3-(6-hydroxyhexylsulfamoyl)phenyl]-N,N-dipropyl-3H-1-benzazepine-4-carboxamide]"
17000,4,"CCCN(CCC)C(=O)C1=Cc2ccc(-c3cccc(S(=O)(=O)N4CCC(O)CC4)c3)cc2N=C(N)C1 [Example 13, 2-Amino-8-[3-[(4-hydroxy-1-piperidyl)sulfonyl]phenyl]-N,N-dipropyl-3H-1-benzazepine-4-carboxamide]"
> 100000,9,"CCCN(CCC)C(=O)C1=Cc2ccc(-c3cc(C(F)(F)F)cc(S(=O)(=O)N4CC[C@@H](O)C4)c3)cc2N=C(N)C1 [Example 14, 2-Amino-8-[3-[(3R)-3-hydroxypyrrolidin-1-yl]sulfonyl-5-(trifluoromethyl)phenyl]-N,N-dipropyl-3H-1-benzazepine-4-carboxamide]"
17000,4,"CCCN(CCC)C(=O)C1=Cc2ccc(-c3ccc(OC)c(S(=O)(=O)N4CC[C@@H](O)C4)c3)cc2N=C(N)C1 [Example 15, 2-Amino-8-[3-[(3R)-3-hydroxypyrrolidin-1-yl]sulfonyl-4-methoxy-phenyl]-N,N-dipropyl-3H-1-benzazepine-4-carboxamide]"
26000,2,"CCCN(CCC)C(=O)C1=Cc2ccc(-c3cccc(S(=O)(=O)N4CC(CO)C4)c3)cc2N=C(N)C1 [Example 16, 2-Amino-8-[3-[3-(hydroxymethyl)azetidin-1-yl]sulfonylphenyl]-N,N-dipropyl-3H-1-benzazepine-4-carboxamide]"
> 100000,5,"CCCN(CCC)C(=O)C1=Cc2ccc(-c3cccc(S(=O)(=O)N4CCC[C@@H](O)C4)c3)cc2N=C(N)C1 [Example 17, 2-Amino-8-[3-[[(3R)-3-hydroxy-1-piperidyl]sulfonyl]phenyl]-N,N-dipropyl-3H-1-benzazepine-4-carboxamide]"
> 100000,6,"CCCN(CCC)C(=O)C1=Cc2ccc(-c3cccc(S(=O)(=O)N4CCC[C@H](O)C4)c3)cc2N=C(N)C1 [Example 18, 2-Amino-8-[3-[[(3S)-3-hydroxy-1-piperidyl]sulfonyl]phenyl]-N,N-dipropyl-3H-1-benzazepine-4-carboxamide]"
14000,9,"CCCN(CCC)C(=O)C1=Cc2ccc(-c3cccc(S(=O)(=O)N4CC[C@@H](O)C4)c3C)cc2N=C(N)C1 [Example 19, 2-Amino-8-[3-[(3R)-3-hydroxypyrrolidin-1-yl]sulfonyl-2-methyl-phenyl]-N,N-dipropyl-3H-1-benzazepine-4-carboxamide]"
5000,17,"CCCN(CCC)C(=O)C1=Cc2ccc(-c3cncc(S(=O)(=O)N4CCNCC4)c3)cc2N=C(N)C1 [Example 20, 2-Amino-8-(5-piperazin-1-ylsulfonyl-3-pyridyl)-N,N-dipropyl-3H-1-benzazepine-4-carboxamide]"
> 100000,18,"CCCN(CCC)C(=O)C1=Cc2ccc(-c3cccc(S(=O)(=O)N4CCNCC4)c3)cc2N=C(N)C1 [Example 21, 2-Amino-8-(3-piperazin-1-ylsulfonylphenyl)-N,N-dipropyl-3H-1-benzazepine-4-carboxamide]"
17000,31,"CCCN(CCC)C(=O)C1=Cc2ccc(-c3cncc(S(=O)(=O)N4CCC(N)C4)c3)cc2N=C(N)C1 (stereo not shown) [Example 22, 2-Amino-8-[5-(3-aminopyrrolidin-1-yl)sulfonyl-3-pyridyl]-N,N-dipropyl-3H-1-benzazepine-4-carboxamide]"
13000,6,"CCCN(CCC)C(=O)C1=Cc2ccc(-c3cc(C)cc(S(=O)(=O)N4CC[C@@H](O)C4)c3)cc2N=C(N)C1 [Example 23, 2-Amino-8-[3-[(3R)-3-hydroxypyrrolidin-1-yl]sulfonyl-5-methyl-phenyl]-N,N-dipropyl-3H-1-benzazepine-4-carboxamide]"
